The target in test [1] is Calcium/calmodulin-dependent protein kinase type 1G (Homo sapiens) (UniProt Q96NX5).
Test [2] has as its target Cyclin-dependent kinase 4 (Homo sapiens) (UniProt P11802).
Test [3] has as its system Receptor-type tyrosine-protein kinase FLT3 (Homo sapiens), P36888 [D835H].
The subject of test [4] is eIF-2-alpha kinase GCN2 (Homo sapiens), Q9P2K8 [S808G].
In test [5] the target is Glycogen synthase kinase-3 beta (Homo sapiens) (UniProt P49841).
Test [6] has as its target Serine/threonine-protein kinase 10 (Homo sapiens) (UniProt O94804).
Test [7] concerns the target Serine/threonine-protein kinase MARK2 (Homo sapiens) (UniProt Q7KZI7).
Test [8] has as its target T1, Serine/threonine-protein kinase 4 (Homo sapiens) (UniProt Q13043).
T1 sequence (whole entry): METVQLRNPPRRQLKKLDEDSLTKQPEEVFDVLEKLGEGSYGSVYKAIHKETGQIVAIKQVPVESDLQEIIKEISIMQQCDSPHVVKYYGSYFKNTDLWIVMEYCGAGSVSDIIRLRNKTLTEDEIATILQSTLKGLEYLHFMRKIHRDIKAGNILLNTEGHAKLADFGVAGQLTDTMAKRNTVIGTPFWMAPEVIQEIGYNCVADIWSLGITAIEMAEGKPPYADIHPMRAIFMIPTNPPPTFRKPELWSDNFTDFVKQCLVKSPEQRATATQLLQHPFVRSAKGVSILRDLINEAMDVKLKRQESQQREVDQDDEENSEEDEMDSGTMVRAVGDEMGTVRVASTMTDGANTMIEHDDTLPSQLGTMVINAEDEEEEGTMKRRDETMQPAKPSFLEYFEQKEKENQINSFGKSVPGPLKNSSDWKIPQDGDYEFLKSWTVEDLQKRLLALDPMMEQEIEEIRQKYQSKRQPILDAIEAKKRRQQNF

Test [9] deals with Serine/threonine-protein kinase PAK 1 (Homo sapiens) (UniProt Q13153).
For test [10], the target named is Phosphorylase b kinase gamma catalytic chain, skeletal muscle/heart isoform (Homo sapiens) (UniProt Q16816).
The subject of test [11] is Phosphatidylinositol 4,5-bisphosphate 3-kinase catalytic subunit alpha isoform (Homo sapiens), P42336 [C420R].
Test [12] has as its system Phosphatidylinositol 4,5-bisphosphate 3-kinase catalytic subunit alpha isoform (Homo sapiens), P42336 [Q546K].
Test [13] addresses Serine/threonine-protein kinase pim-3 (Homo sapiens) (UniProt Q86V86).
The target in test [14] is T2, Serine/threonine-protein kinase D3 (Homo sapiens) (UniProt O94806).
T2 sequence (whole entry): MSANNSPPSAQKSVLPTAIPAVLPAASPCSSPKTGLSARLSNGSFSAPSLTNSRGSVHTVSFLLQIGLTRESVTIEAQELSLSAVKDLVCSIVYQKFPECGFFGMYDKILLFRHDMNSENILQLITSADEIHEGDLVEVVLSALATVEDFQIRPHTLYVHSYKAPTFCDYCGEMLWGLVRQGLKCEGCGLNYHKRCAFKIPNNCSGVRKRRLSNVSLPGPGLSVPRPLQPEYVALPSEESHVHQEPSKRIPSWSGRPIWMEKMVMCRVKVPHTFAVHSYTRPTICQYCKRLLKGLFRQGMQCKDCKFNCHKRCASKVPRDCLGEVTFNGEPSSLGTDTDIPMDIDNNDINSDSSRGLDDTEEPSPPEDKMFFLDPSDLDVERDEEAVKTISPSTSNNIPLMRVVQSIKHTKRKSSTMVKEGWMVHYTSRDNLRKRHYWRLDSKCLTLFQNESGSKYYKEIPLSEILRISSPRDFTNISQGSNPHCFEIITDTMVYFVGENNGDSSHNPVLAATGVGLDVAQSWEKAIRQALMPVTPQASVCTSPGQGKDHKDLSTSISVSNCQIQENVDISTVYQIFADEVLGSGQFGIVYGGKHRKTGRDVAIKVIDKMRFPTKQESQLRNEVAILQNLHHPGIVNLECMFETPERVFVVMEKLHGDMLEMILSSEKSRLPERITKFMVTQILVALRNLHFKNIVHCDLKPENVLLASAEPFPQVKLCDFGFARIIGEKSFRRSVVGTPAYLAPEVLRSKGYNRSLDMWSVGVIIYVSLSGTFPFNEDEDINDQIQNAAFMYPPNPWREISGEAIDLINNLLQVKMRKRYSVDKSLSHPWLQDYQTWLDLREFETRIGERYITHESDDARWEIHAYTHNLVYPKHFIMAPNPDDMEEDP

The target in test [15] is Ribosomal protein S6 kinase alpha-2 (Homo sapiens) (UniProt Q15349).
Chain of Ribosomal protein S6 kinase alpha-2 (Homo sapiens) (Q15349 whole entry): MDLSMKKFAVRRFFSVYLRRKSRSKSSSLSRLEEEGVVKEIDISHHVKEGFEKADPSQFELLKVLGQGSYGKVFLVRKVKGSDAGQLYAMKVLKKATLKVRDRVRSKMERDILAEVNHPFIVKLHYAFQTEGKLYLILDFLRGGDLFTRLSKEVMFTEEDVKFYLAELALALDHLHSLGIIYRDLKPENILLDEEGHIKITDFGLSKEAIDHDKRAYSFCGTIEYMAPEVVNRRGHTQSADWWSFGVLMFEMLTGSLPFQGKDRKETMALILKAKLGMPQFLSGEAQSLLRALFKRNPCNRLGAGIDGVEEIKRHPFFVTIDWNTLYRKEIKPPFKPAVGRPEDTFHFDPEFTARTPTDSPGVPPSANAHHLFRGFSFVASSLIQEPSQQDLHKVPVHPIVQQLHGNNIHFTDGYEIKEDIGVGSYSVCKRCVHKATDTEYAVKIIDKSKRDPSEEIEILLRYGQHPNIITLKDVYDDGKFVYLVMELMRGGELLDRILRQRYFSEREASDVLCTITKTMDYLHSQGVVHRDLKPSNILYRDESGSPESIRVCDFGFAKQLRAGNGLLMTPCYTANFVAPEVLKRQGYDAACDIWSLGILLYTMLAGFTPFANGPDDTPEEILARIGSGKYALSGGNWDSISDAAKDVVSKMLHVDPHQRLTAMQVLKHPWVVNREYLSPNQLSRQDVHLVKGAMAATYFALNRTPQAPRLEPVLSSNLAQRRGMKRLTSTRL
Test [16] addresses Tyrosine-protein kinase SYK (Homo sapiens) (UniProt P43405).
Test [17] concerns the target Serine/threonine-protein kinase tousled-like 2 (Homo sapiens) (UniProt Q86UE8).
Test [18] deals with T3, Tyrosine-protein kinase ZAP-70 (Homo sapiens) (UniProt P43403).
T3 sequence (whole entry): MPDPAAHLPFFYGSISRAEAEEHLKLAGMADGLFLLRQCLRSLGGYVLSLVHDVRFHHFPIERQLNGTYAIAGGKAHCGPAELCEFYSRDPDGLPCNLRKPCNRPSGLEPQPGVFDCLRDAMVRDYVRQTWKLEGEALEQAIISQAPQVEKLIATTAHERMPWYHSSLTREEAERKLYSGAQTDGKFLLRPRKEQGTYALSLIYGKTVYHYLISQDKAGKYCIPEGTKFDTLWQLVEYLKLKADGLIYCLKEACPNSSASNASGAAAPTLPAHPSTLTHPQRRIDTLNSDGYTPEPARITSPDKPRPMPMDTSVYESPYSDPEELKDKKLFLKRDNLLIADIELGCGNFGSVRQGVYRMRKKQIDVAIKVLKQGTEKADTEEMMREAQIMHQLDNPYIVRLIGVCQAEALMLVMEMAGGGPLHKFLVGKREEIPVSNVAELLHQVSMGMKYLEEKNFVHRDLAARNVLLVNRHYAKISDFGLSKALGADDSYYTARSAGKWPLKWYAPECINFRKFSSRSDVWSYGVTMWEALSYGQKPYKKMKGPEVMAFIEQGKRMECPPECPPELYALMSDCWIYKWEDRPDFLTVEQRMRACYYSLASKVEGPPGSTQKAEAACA

Where [19] appears, read: Compound concentration 1000.0 nM.
The mark [20] stands for this setting: Compound concentration 100.0 nM.

What is called residual activity is the activity still measured, relative to the control.

Chain of Serine/threonine-protein kinase 10 (Homo sapiens) (O94804 whole entry, looked up): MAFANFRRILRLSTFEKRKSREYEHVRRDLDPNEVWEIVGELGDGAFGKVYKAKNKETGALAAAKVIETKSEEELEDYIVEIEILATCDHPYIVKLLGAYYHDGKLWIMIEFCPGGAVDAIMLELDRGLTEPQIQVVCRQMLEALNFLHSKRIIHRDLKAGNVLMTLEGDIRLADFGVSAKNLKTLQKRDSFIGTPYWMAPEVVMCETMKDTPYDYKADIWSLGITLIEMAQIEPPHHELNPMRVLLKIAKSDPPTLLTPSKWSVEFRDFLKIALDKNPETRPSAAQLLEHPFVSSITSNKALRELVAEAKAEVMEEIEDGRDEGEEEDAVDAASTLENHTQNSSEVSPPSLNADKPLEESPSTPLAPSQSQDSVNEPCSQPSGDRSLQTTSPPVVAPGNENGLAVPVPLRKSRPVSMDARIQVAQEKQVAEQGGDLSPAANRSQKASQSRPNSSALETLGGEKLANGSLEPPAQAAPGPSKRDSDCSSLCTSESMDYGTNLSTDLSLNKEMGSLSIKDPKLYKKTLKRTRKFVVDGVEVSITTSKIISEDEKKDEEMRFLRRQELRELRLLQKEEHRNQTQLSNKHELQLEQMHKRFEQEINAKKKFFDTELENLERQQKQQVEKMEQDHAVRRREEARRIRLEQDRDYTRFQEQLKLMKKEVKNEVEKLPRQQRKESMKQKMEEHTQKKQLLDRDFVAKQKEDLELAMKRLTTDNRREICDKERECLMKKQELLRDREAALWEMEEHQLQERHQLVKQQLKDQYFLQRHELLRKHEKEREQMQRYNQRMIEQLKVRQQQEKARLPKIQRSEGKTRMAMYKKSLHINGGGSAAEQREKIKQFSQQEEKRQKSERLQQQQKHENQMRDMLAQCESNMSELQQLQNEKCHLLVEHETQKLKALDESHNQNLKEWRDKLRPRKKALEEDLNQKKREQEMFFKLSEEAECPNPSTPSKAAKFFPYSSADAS
Chain of Cyclin-dependent kinase 4 (Homo sapiens) (P11802 whole entry): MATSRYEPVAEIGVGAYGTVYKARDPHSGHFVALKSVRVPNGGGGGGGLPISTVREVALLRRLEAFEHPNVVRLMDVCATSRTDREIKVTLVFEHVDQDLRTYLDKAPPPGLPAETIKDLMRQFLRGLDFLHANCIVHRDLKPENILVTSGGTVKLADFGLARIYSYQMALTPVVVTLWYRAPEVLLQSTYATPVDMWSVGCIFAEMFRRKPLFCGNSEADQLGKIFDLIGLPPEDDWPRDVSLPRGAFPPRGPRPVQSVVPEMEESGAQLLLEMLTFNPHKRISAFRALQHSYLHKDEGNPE
Chain of Serine/threonine-protein kinase MARK2 (Homo sapiens) (Q7KZI7 whole entry): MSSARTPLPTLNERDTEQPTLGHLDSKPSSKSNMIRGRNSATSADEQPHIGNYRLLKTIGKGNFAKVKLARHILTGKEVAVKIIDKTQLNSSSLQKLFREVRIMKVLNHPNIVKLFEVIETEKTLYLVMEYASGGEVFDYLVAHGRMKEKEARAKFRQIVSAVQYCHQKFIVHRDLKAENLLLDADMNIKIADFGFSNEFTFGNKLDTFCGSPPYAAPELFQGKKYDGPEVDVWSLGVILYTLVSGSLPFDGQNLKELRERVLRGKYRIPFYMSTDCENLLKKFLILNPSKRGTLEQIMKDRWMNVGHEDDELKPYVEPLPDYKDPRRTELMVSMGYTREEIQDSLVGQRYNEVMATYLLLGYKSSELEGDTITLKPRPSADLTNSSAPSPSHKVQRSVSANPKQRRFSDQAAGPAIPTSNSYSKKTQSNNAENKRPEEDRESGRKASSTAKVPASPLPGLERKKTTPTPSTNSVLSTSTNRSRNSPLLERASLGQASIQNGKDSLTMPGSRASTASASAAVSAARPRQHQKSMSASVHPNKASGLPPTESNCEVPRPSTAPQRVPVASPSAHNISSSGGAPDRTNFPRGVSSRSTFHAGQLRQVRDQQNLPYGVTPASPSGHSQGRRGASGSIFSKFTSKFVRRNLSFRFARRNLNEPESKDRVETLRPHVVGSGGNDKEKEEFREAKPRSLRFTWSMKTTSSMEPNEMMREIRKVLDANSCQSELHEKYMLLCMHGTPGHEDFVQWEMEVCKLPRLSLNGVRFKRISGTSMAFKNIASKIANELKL
Chain of eIF-2-alpha kinase GCN2 (Homo sapiens), Q9P2K8 [S808G] (Q9P2K8 whole entry S808G): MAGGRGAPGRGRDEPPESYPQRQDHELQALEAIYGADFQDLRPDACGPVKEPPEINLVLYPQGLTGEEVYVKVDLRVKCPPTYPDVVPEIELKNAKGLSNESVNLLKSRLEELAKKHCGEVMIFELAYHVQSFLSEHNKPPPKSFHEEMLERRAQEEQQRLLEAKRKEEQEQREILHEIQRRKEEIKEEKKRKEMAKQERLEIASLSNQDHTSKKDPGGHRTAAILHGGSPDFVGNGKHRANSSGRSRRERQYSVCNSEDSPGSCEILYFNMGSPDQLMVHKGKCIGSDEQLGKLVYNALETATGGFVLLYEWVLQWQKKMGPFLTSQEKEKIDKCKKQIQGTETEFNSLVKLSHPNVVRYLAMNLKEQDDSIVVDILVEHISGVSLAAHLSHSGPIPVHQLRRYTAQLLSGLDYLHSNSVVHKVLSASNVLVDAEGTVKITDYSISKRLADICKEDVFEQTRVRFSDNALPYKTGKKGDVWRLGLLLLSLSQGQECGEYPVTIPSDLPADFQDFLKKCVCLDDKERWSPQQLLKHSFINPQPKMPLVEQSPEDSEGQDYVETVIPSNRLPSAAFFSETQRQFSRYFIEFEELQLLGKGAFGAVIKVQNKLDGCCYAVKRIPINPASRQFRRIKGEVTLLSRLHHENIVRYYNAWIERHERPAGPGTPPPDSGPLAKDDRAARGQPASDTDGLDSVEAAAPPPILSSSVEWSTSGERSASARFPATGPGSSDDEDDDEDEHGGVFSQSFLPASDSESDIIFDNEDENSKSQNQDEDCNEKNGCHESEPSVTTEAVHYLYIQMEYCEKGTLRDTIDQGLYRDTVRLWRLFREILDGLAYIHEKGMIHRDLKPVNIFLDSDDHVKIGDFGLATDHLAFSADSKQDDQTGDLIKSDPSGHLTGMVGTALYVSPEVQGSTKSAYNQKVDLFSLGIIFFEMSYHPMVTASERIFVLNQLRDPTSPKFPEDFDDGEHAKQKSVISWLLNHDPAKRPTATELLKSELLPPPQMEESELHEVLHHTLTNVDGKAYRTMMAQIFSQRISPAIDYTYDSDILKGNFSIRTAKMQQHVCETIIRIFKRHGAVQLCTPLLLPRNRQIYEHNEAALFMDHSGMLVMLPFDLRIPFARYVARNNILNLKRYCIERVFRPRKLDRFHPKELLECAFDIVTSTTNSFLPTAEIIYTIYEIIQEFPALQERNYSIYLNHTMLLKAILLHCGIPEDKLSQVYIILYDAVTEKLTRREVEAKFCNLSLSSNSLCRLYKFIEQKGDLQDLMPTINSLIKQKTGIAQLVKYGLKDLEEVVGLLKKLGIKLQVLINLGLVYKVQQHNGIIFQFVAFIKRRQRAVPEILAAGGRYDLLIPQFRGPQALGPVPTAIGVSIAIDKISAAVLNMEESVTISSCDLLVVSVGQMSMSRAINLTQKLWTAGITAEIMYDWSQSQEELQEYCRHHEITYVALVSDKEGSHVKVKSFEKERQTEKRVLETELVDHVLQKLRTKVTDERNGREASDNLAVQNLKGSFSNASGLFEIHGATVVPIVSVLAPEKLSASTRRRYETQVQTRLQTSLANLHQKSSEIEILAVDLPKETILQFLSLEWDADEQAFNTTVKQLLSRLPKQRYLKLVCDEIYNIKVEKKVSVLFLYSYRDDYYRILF
Chain of Glycogen synthase kinase-3 beta (Homo sapiens) (P49841 whole entry, looked up): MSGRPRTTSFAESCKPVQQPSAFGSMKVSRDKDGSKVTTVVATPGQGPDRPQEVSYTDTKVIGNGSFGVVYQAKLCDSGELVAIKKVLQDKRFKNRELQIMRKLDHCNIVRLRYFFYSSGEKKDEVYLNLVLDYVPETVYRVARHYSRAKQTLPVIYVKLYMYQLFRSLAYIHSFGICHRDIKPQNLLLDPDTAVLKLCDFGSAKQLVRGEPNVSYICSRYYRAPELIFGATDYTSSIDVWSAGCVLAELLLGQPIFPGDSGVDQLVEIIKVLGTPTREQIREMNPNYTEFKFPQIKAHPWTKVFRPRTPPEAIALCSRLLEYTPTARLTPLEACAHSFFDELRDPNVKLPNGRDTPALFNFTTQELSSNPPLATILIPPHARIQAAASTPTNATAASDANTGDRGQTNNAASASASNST

Regarding `C[C@@H]1CN(c2cc(-c3nn(C)c4ccc(OC5(C)CC5)cc34)ncn2)C[C@H](C)O1` [MLi-2-NC], the residual activity in test [1] (setting [19]) is 82%; in [2] (setting [19]), 71%; in test [3] (setting [19]), 84%; in [4] (setting [19]), 100%; in [5] (setting [19]) it was 91%; in test [6] (setting [19]), 91%. In addition, the residual activity is 89% in test [7] (setting [19]); 100% in test [8] (setting [19]); 76% in test [9] (setting [19]); 90% in [10] (setting [19]); 100% in test [11] (setting [19]); 39% in [12] (setting [19]). Further, the residual activity in [13] (setting [19]) is 92%; in test [14] (setting [19]), 64%; in test [15] (setting [19]), 88%; in test [16] (setting [19]) it was 89%; in test [17] (setting [19]) it was 97%; in [18] (setting [19]), 100%.
Regarding `C[C@@H]1CN(c2cc(-c3n[nH]c4ccc(OC5(C)CC5)cc34)ncn2)C[C@H](C)O1` [MLi-2], the residual activity in [1] (setting [20]) was 91%; in test [2] (setting [20]), 68%; in [3] (setting [20]), 100%; in test [4] (setting [20]), 81%; in test [5] (setting [20]) it was 90%; in [6] (setting [20]), 83%. The residual activity was 100% in test [7] (setting [20]); 83% in test [8] (setting [20]); 97% in test [9] (setting [20]); 100% in [10] (setting [20]); 72% in [11] (setting [20]); 69% in test [12] (setting [20]). In addition, the residual activity in [13] (setting [20]) is 100%; in test [14] (setting [20]), 82%; in test [15] (setting [20]), 92%; in [16] (setting [20]) it was 96%; in [17] (setting [20]), 100%; in test [18] (setting [20]), 83%.

The values are drawn from ChEMBL document CHEMBL4507291 (2021).
